A short description of this data set: Dissolution / release profile of BAEE from the delivery system (USP XXIII dissolution paddle apparatus). It counts as physicochemical. The note with it: PBS pH 7.2, 37±1°C, 100 rpm. Here is the method: The dissolution of a coated and a non-coated delivery system according to the present invention was investigated by using the standard USP XXIII dissolution paddle apparatus. The paddle speed was 100 rpm and the dissolution medium was phosphate buffer solution (PBS) pH 7.2 at 37±1°C. PBS was prepared according to the method of USP XXIII. Three replicates for each sample were tested at specific interval times and their mean percent release was calculated.
Two release patterns of example 1, showing the release profiles of BAEE from the system with and without a gelatin enteric coating (capsule) are depicted in Figures 6 and 7, respectively.
Data are expressed as mean ± standard deviation (SD, n=6). (Standard USP XXIII dissolution apparatus is used with Phosphate Buffer Solution (PBS) pH = 7.2 as a dissolution medium. Temperature was 37±1°C and paddle speed was 100 rpm).
Data are expressed as mean ±SD (n=6). (Standard USP XXIII dissolution apparatus is used with PBS pH = 7.2 as a dissolution medium. Temperature was 37±1°C and paddle speed was 100 rpm).

These results are taken from patent EP1095650A1, “Double phase time-controlled release system” (Universiteit Leiden, priority 1999, dated 2001).

As to `CCOC(=O)[C@H](CCCN=C(N)N)NC(=O)c1ccccc1` [BAEE, N-α-benzoyl-L-arginine ethylester], the lag time result (system of Example 1 inserted in gelatin capsule and enteric-coated (Figure 7), compared with non-coated system) is reported as “increased”. Further, the “amount of drug released after the lag time” value (system of Example 1 not inserted in gelatin capsule (Figure 6), within a short period of time) was “whole amount of drug is released”.
